Read-outs that look alike come from different tables or passages of the source.
Test: First-in-human Part 2 multiple ascending dose q.d. blood and urine PK
Type: in vivo
Details: for Amount recovered / Amount recovered (%): Day 12, urine; for drug accumulation ratio (Racc): day 12 vs day 1, q.d.; for CL renal: blood and urine, Day 12, read-out: Renal clearance
Text: First-in-human study in up to approximately 168 healthy volunteers (HVs), of which 64 (in Parts 2 & 4) had asymptomatic atopic diathesis. • Part 1 was a double-blind (subject and investigator blind, sponsor unblinded), placebo-controlled single ascending dose (SAD) escalation study of 10 cohorts (N=80) • Part 2 was a double-blind (subject and investigator blind, sponsor unblinded), placebo-controlled multiple ascending dose (MAD) (13 doses over 12 days) escalation study employing once daily dosing in 6 cohorts in healthy volunteers with asymptomatic atopic diathesis (N=48) • Part 3 was a single dose open-label crossover food effect study in 12 HVs • Part 4 was a double-blind (subject and investigator blind, sponsor unblinded), placebo-controlled multiple dose (25 doses over 12 days) study employing twice daily dosing in 2 cohorts of healthy volunteers with asymptomatic atopic diathesis (N=16)
In Parts 2 and 4, subjects were admitted on Day −2 or −1 for baseline safety assessments and to confirm eligibility. Eligible subjects received the first dose of compound (I) under fasting conditions on Day 1, and continued to take study medication under fasting conditions up to and including Day 12. Subjects were domiciled from Day −2 or −1 until the morning of Day 16, which equals 96 hours after the last dose of compound (I) was received. In Parts 2 and 4, the study medication was given once daily and twice daily respectively (details are found in the schedule of assessments).
Subjects were assigned to one of the following 6 cohorts. In each cohort, 8 subjects were randomized to either compound (I) or matching placebo in a 6:2 ratio. • Cohort 1: multiple oral doses of 10 mg compound (I) or matching placebo • Cohort 2: multiple oral doses of 25 mg compound (I) or matching placebo • Cohort 3: multiple oral doses of 50 mg compound (I) or matching placebo • Cohort 4: multiple oral doses of 100 mg compound (I) or matching placebo • Cohort 5: multiple oral doses of 400 mg compound (I) or matching placebo • Cohort 6: multiple oral doses of up to 600 mg compound (I) or matching placebo
Pharmacokinetic samples were obtained in blood and evaluated in all subjects at all dose levels. The samples from placebo subjects were not analyzed. The samples for PK assessments from subjects were collected at time points defined in the study. Compound (I) concentrations were determined in blood by a validated LC-MS/MS method.

[1] = 10 mg qd, Day 12, blood, Mean ± SD
[2] = 25 mg qd, Day 12, blood, Mean ± SD
[3] = 50 mg qd, Day 12, blood, Mean ± SD
[4] = 50 mg qd, Day 12, blood, Median (Min-Max)
[5] = 100 mg qd, Day 1, blood, Mean ± SD
[6] = 100 mg qd, Day 1, blood, Median (Min-Max)
[7] = 100 mg qd, Day 12, blood, Mean ± SD
[8] = 400 mg qd, Day 1, blood, Mean ± SD
[9] = 400 mg qd, Day 12, blood, Mean ± SD
[10] = 600 mg qd, Day 1, blood, Mean ± SD
[11] = 600 mg qd, Day 12, blood, Mean ± SD

Cmax (10 mg qd, Day 1, blood, Mean ± SD): 8.40 ± 2.02 ng/mL | CLss/F [1]: 425 ± 64.8 L/h | Cmax [1]: 18.2 ± 5.90 ng/mL | CLss/F (10 mg qd, Day 12, blood, Median (Min-Max)): 423 (341-529) L/h | Amount recovered (10 mg qd, Mean ± SD): 0.0663 ± 0.0309 mg | Amount recovered (%) (10 mg qd, Mean ± SD): 0.663 ± 0.309% | Amount recovered (10 mg qd, Median (Min-Max)): 0.0630 mg | Cmax (25 mg qd, Day 1, blood, Mean ± SD): 40.9 ± 21.6 ng/mL | CLss/F [2]: 307 ± 253 L/h | Cmax [2]: 85.9 ± 31.5 ng/mL | CLss/F (25 mg qd, Day 12, blood, Median (Min-Max)): 248 (129-809) L/h | Amount recovered (25 mg qd, Mean ± SD): 0.114 ± 0.0706 mg | Amount recovered (%) (25 mg qd, Mean ± SD): 0.456 ± 0.283% | Cmax (50 mg qd, Day 1, blood, Mean ± SD): 76.5 ± 22.0 ng/mL | CLss/F [3]: 268 ± 92.8 L/h | Cmax [3]: 102 ± 22.0 ng/mL | CLss/F [4]: 276 (154-395) L/h | Cmax [4]: 100 (73.3-131) ng/mL | Amount recovered (50 mg qd, Mean ± SD): 0.233 ± 0.0880 mg | Amount recovered (%) (50 mg qd, Mean ± SD): 0.467 ± 0.176% | AUC0-24 [5]: 315 ± 91.5 ng·h/mL | AUClast [5]: 311 ± 89.1 ng·h/mL | Cmax [5]: 187 ± 85.0 ng/mL | MRT [5]: 167 ± 76.8 min | AUC0-24 [6]: 338 (168-419) h*ng/mL | AUClast [6]: 333 (168-416) h*ng/mL | Cmax [6]: 189 (75.6-285) ng/mL | AUC0-24 [7]: 485 ± 179 ng·h/mL | AUClast [7]: 488 ± 172 ng·h/mL | CLss/F [7]: 198 ± 88.7 L/h | Cmax [7]: 233 ± 84.1 ng/mL | CLss/F (100 mg qd, Day 12, blood, Median (Min-Max)): 166 (129-298) L/h | Amount recovered (100 mg qd, Mean ± SD): 0.648 ± 0.330 mg | Amount recovered (%) (100 mg qd, Mean ± SD): 0.648 ± 0.330% | AUC0-24 [8]: 977 ± 378 ng·h/mL | AUClast [8]: 973 ± 379 ng·h/mL | Cmax [8]: 518 ± 89.1 ng/mL | MRT [8]: 181 ± 66.6 min | Cmax (400 mg qd, Day 1, blood, Median (Min-Max)): 513 (383-622) ng/mL | AUC0-24 [9]: 1280 ± 577 ng·h/mL | AUClast [9]: 1300 ± 602 ng·h/mL | CLss/F [9]: 366 ± 150 L/h | Cmax [9]: 551 ± 263 ng/mL | CLss/F (400 mg qd, Day 12, blood, Median (Min-Max)): 351 (177-591) L/h | Amount recovered (400 mg qd, Mean ± SD): 1.25 ± 0.647 mg | Amount recovered (%) (400 mg qd, Mean ± SD): 0.313 ± 0.162% | AUC0-24 [10]: 1080 ± 377 ng·h/mL | AUClast [10]: 1080 ± 377 ng·h/mL | Cmax [10]: 550 ± 87.6 ng/mL | MRT [10]: 188 ± 34.8 min | Cmax (600 mg qd, Day 1, blood, Median (Min-Max)): 545 (461-691) ng/mL | AUC0-24 [11]: 1230 ± 356 ng·h/mL | AUClast [11]: 1240 ± 341 ng·h/mL | CLss/F [11]: 521 ± 131 L/h | Cmax [11]: 563 ± 229 ng/mL | CLss/F (600 mg qd, Day 12, blood, Median (Min-Max)): 569 (345-661) L/h | Amount recovered (600 mg qd, Mean ± SD): 1.54 ± 0.915 mg | Amount recovered (%) (600 mg qd, Mean ± SD): 0.257 ± 0.153% | drug accumulation ratio (Racc) (high dose): 1.2 | drug accumulation ratio (Racc) (low dose): 5 | CL renal (human, oral, 10 mg, 10 mg qd, Mean ± SD): 45.3 ± 18 mL/min | CL renal (human, oral, 10 mg, 10 mg qd, Median (Min-Max)): 41.6 mL/min | CL renal (human, oral, 25 mg, 25 mg qd, Mean ± SD): 16.8 ± 6.81 mL/min | CL renal (human, oral, 25 mg, 25 mg qd, Median (Min-Max)): 18.9 mL/min | CL renal (human, oral, 50 mg, 50 mg qd, Mean ± SD): 20.4 ± 2.4 mL/min | CL renal (human, oral, 50 mg, 50 mg qd, Median (Min-Max)): 20.5 mL/min | CL renal (human, oral, 100 mg, 100 mg qd, Mean ± SD): 21.6 ± 5.41 mL/min | CL renal (human, oral, 100 mg, 100 mg qd, Median (Min-Max)): 21.1 mL/min | CL renal (human, oral, 400 mg, 400 mg qd, Mean ± SD): 16.9 ± 7.13 mL/min | CL renal (human, oral, 400 mg, 400 mg qd, Median (Min-Max)): 14.5 mL/min | CL renal (human, oral, 600 mg, 600 mg qd, Mean ± SD): 20 ± 8.25 mL/min | CL renal (human, oral, 600 mg, 600 mg qd, Median (Min-Max)): 18.1 mL/min | AUC(0-t) (human, blood, oral, 10 mg, 10 mg qd, Day 1, blood, Mean ± SD, read-out: AUC0-24): 4.94 ± 1.35 ng·h/mL | AUC(0-t) (human, blood, oral, 10 mg, 10 mg qd, Day 1, blood, Mean ± SD, read-out: AUClast): 4.17 ± 1.38 ng·h/mL | MRT (human, blood, oral, 10 mg, 10 mg qd, Day 1, blood, Mean ± SD, read-out: MRT): 45.7 ± 9.06 min | Tmax (human, blood, oral, 10 mg, 10 mg qd, Day 1, blood, Median (Min-Max)): 31 min | AUC(0-t) (human, blood, oral, 10 mg, 10 mg qd, Day 1, blood, Median (Min-Max), read-out: AUC0-24): 4.94 ng·h/mL
SMILES: C=CC(=O)N(C)CCOc1c(N)ncnc1-c1cc(F)cc(NC(=O)c2ccc(C3CC3)cc2F)c1C [Compound of Formula (I), N-(3-(6-Amino-5-(2-(N-methylacrylamido)ethoxy)pyrimidin-4-yl)-5-fluoro-2-methylphenyl)-4-cyclopropyl-2-fluorobenzamide]

From patent US12383556B2, “Methods of treating Sjögren's syndrome using a Bruton's tyrosine kinase inhibitor” (NOVARTIS AG, priority 2019, dated 2025)
